The source of these data is patent US12644099B2, “Methods for making T cell compositions” (2seventy bio, Inc., priority 2014, dated 2026).

Experiment [1] relates to T cells. Briefly: T cell proliferation (CellTrace Violet dilution, flow cytometry) of PBMC-derived T cells cultured with AKT inhibitor. It is filed as cell-based. On the procedure: The purpose of this experiment was to determine the effect of Akt inhibitors on T cell proliferation. The impact of MK-2206 (Selleckchem) on T cell proliferation was assessed by measuring T cell division. Peripheral blood mononuclear cells (PBMC) are a heterogeneous cellular population containing T cells. PBMC were harvested from normal donors and labeled with a fluorescent dye (CellTrace® Violet, Molecular Probes), whose intensity is progressively diluted by a factor of two with each cell division. The labeled PBMCs were used as a source of cells for T cell expansion. […] The impact of MK-2206 on cell division was assayed by evaluating CellTrace Violet dilution with flow cytometry after the addition of 0.025 μM, 0.074 μM, 0.222 μM, 0.67 μM, or 2.0 μM, MK-2206 to the T cultures at day 0. […] A pairwise t test was performed on all day seven cultures; (each concentration of MK-2206 was compared to 0 μM MK-2206: the cultures were not statistically different at the p≤0.05 level).
(In flow cytometry, cells or beads pass a laser one at a time.)

Experiment [2] concerns T cells. Briefly: CD62L expression on T cells treated with MK-2206. It is filed as cell-based. On the procedure: The purpose of this experiment was to determine the effect of Akt inhibitors on T cell markers for T cell potency. The impact of MK-2206 (Selleckchem) on T cell potency was assessed by measuring CD62L expression in the T cell cultures manufactured in Example 1. Mouse models have shown that CD62L expression identifies potent T cells; T cells with greater anti-tumor efficacy after adoptive transfer. […] FIG. 2. A pairwise T test was performed on all day seven cultures (each concentration of MK-2206 was compared to 0 μM MK-2206: *p<0.05, **p<0.01).

For experiment [3], the system named is anti-BCMA CAR T cells. Briefly: CD62L expression on anti-BCMA CAR T cells by flow cytometry at the end of culture with inhibitor. The class given is cell-based. To be noted: ten days of culture with IL-2 and optimized dose of inhibitor; three normal donors. On the procedure: CAR T cells were cultured with either MK-2206 or triciribine phosphate—TCN (AKT inhibitors) or ZSTK474 (PI3K inhibitor). CAR T cells specific for B cell maturation antigen (BCMA) were used in these set of experiments. CAR T cell cultures were performed using a system directly scalable to large clinical manufacturing processes. […] 2×10^8 transducing units of lentivirus encoding anti-BCMA CARs were added one day after culture initiation. […] At the end of culture, the anti-BCMA CAR T cells were interrogated for phenotype. Expression of CD62L on anti-BCMA CAR T cells was assessed by flow cytometry at the end of culture. Anti-BCMA CAR T cells were specifically identified using recombinant human BCMA-IgG Fc conjugated to PE. CD62L expression was determined with a co-stain using an antibody specific to CD62L. […] (FIG. 3).

Experiment [4] deals with Daudi tumor. The experiment is described as follows: Anti-tumor activity of cultured anti-BCMA CAR T cells in aggressive Daudi tumor model. The class given is in vivo. The text has this: Daudi tumor cells express a low level of BCMA protein and can be effectively treated using anti-BCMA CAR T cells.
In experiment [5] the test system is multiple myeloma tumors (RPMI-8226). Briefly: Anti-tumor activity of cultured anti-BCMA CAR T cells in sub cutaneous multiple myeloma tumor model. It is filed as in vivo, mice. As to conditions: 100 mm^3 sub cutaneous RPMI-8226 tumors; 1×10^6 CAR-positive cells infused. On the procedure: Anti-BCMA CAR T cells treated with MK-2206, TCN, or ZSTK474 as described in Example 3 were tested to evaluate whether increased CD62L expression was associated with increased anti-tumor activity. […] Animals with 100 mm^3 sub cutaneous multiple myeloma tumors (RPMI-8226) were infused with equivalent CAR T cell doses (1×10^6 CAR-positive cells).

The test system of experiment [6] is RPMI-8226. The experiment is described as follows: Persistence of anti-BCMA CAR T cells: RPMI-8226 tumor rechallenge. It is filed as in vivo, mice. As to conditions: rechallenged 13 days later with RPMI-8226 on the opposite flank after complete regression.
Protocol: Persistence of anti-BCMA CAR T cells was evaluated by re-challenging tumors in mice that had complete regression.

Entries after “also recorded” stand apart in the source; their conditions may differ.

As for `NC1(c2ccc(-c3nc4ccn5c(=O)[nH]nc5c4cc3-c3ccccc3)cc2)CCC1` [MK-2206], the “T cell division / proliferation compared to vehicle or non-treated controls” value in experiment [1] (seven days of culture, 0.025-2.0 μM MK-2206 with IL-2, pairwise t test p≤0.05) is “no statistically significant differences in T cell division; also recorded: not substantially different”. In addition, the “T cell division / proliferation compared to no treatment control” value in experiment [1] (three days of culture, 0.025-2.0 μM MK-2206 with IL-2, CD3 and CD28 antibodies) is “did not substantially decrease T cell division; also recorded: only slightly decreased”. In addition, the “CD62L expression on T cells compared to no treatment control” value in experiment [2] (seven days of culture in the presence of IL-2, all concentrations tested) is listed as “significantly increases CD62L expression at all concentrations; also recorded: significant higher levels of CD62L expression”; in experiment [2] (three days of culture with MK-2206), “not substantially different”. Besides, the “CD62L expression on anti-BCMA CAR T cells compared to cultures with IL-2 alone” value in experiment [3] was “significantly higher CD62L expression”. For the same compound, in experiment [4], the “anti-tumor activity (Daudi tumor progression) of anti-BCMA CAR T cells cultured with the agent” value is given as “complete tumor regression”.
Take `CN1N=C(N)c2cn([C@@H]3O[C@H](COP(=O)(O)O)[C@@H](O)[C@H]3O)c3ncnc1c23` [TCN, triciribine phosphate]: the “CD62L expression on anti-BCMA CAR T cells compared to cultures with IL-2 alone” value in experiment [3] is listed as “not”. The “anti-tumor activity of anti-BCMA CAR T cells cultured with the agent” value in experiment [5] was “did not show an anti-tumor response; also recorded: completely abolished any anti-tumor responses”.
Turning to `FC(F)c1nc2ccccc2n1-c1nc(N2CCOCC2)nc(N2CCOCC2)n1` [ZSTK474], the “CD62L expression on anti-BCMA CAR T cells compared to cultures with IL-2 alone” value in experiment [3] is on record as “significantly higher CD62L expression”. The “anti-tumor activity (Daudi tumor progression) of anti-BCMA CAR T cells cultured with the agent” value in experiment [4] was “complete tumor regression”. Further, in experiment [6], the “tumor outgrowth / engraftment after rechallenge in animals treated with anti-BCMA CAR T cells cultured with the agent” value is “none of the animals treated with ZSTK474-cultured anti-BCMA CAR T cells had any evidence of tumor engraftment”.
